In patent US5068253A, “Treatment of a microbial infection with drugs containing para-acetamidobenzoic acid” (priority 1990, dated 1991):
Where “and” joins values, the source holds several entries; their conditions need not be identical. Identical values can stand only once. Counter-ions that a name gives are not always drawn.

How the values were obtained:
[1] = molecular target: T1, Dihydropteroate synthase (DHPS) (Pneumocystis carinii, UniProt P29251); experiment: Catalytic DHPS assay, crude enzyme preparation from P. carinii; assay type: biochemical; conditions: for inhibition at 1000 µM / inhibition at 100 µM / inhibition at 10 µM / Percent DHPS Inhibition: P. carinii, single runs; for inhibition at 1000 µM / inhibition at 100 µM / inhibition at 10 µM: read-out: Percent DHPS Inhibition
T1 construct: Enzyme preparations were made by resuspending P. carinii or T. gondii organisms in 1 ml PBS, sonicating to disrupt the organisms; endogenous in cells; host or cells: P. carinii organisms partially purified from lungs of dexamethasone-treated rats; supernatant of sonicate used as crude enzyme
T1 sequence (P29251 1-740): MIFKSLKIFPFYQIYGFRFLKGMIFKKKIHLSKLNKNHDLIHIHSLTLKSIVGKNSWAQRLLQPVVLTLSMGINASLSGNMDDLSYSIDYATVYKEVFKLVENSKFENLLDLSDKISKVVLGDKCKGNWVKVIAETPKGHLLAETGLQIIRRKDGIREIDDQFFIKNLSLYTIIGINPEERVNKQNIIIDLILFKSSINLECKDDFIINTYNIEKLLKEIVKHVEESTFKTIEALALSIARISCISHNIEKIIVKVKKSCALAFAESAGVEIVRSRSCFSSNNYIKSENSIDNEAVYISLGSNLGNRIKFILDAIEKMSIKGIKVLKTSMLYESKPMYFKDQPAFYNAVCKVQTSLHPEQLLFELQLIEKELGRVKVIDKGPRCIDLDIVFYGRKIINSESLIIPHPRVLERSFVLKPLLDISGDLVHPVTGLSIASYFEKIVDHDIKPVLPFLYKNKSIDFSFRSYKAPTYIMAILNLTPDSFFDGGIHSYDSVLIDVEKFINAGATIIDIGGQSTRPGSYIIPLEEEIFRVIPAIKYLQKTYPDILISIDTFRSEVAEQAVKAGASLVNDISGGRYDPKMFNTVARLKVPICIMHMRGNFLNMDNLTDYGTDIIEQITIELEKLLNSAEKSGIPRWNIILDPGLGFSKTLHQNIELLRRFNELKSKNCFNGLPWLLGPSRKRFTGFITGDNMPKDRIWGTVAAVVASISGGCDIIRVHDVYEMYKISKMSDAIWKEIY
Description: (§1) Dihydropteroate synthase (DHPS) is an enzyme of the de novo folate synthesis pathway which is known to be susceptible to sulfonamides. […] has a structural similarity to PABA (paraamino benzoic acid), one of the substrates of DHPS. To determine whether DHPS is the target for PAcBA, a catalytic DHPS assay as previously described [Allegra et al., J. Clin. Invest. 85:371-379 (1990)] was used.
(§2) Briefly, assay tubes contain 5 mM MgCl2, 5 mM DTT, 10 μM H2 PtCH2 OPP, 1 μM [^3 H]pABA (final sp act, 2 Ci/mmol), and 40 mM Tris/HCl, pH 8.3, in a total reaction volume of 100 μl. Various concentrations of inhibitors are added as needed. Enzyme preparations were made by resuspending P. carinii or T. gondii organisms in 1 ml PBS, sonicating to disrupt the organisms, and pelleting the cellular debris. The supernatant was saved and used as the crude enzyme preparation. Reactions are initiated by the addition of 50 μl of enzyme preparation. After a 30-min incubation at 37° C. the reaction tubes are placed on ice to terminate the reactions, and then spotted onto 3×30-cm strips of 3 MM chromatography paper (Whatman Laboratory Products Inc.). The strips are developed in a descending chromatography tank using an elution buffer of 0.1M KH2 PO4, pH 7.0. The origins containing the labeled products of the reaction are cut from the strips, placed in scintillation vials, and counted in a liquid scintillation counter (Packard Tri-Carb; Packard Instrument Co. Inc., Downers Grove, Ill.) 24 h after the addition of 9.5 ml of counting cocktail (3A70b; Research Products International Corp., Mt. Prospect, Ill.).
(§3) The results of the DHPS inhibition assay carried out on P. carinii (PC) and T. gondii (Toxo) using the indicated composition are shown below in Table II.

[2] = molecular target: T2, Dihydropteroate synthase (DHPS) (Toxoplasma gondii, UniProt A0A7J6K300); experiment: Catalytic DHPS assay, crude enzyme preparation from T. gondii; assay type: biochemical
T2 construct: crude supernatant of sonicated T. gondii RH organisms from mouse peritoneum; bifunctional HPPK-DHPS polypeptide
T2 sequence (A0A7J6K300 1-748): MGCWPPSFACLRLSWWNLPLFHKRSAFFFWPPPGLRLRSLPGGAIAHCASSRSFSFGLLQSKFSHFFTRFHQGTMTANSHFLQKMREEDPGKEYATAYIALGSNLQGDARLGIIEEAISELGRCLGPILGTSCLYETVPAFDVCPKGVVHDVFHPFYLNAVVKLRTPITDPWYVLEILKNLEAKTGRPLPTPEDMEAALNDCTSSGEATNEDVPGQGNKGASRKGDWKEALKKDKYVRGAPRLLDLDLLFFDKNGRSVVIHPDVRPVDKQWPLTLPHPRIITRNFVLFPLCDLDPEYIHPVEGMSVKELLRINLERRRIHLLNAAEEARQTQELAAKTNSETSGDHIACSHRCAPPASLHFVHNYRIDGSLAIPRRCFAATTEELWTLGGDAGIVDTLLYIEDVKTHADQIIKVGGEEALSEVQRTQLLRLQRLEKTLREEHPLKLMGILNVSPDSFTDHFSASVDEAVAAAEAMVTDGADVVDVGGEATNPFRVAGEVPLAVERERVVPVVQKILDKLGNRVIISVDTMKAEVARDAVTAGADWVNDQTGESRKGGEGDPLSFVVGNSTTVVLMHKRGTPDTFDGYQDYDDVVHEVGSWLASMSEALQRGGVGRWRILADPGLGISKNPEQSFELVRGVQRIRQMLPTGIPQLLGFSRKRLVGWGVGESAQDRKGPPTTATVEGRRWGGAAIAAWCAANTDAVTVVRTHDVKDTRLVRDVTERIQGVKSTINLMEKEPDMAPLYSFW
Description: The RH strain of Toxoplasma gondii were used in all experiments. Organisms are passed by intraperitoneal inoculation into Balb/c mice every 3 to 4 days. Organisms were harvested by lavaging the peritoneum of infected animals 3 to 4 days after inoculation. Organisms were resuspended in PBS, cells are removed by differential centrifugation, and organisms were then pelleted and utilized in the studies.
as §1, §2, §3

P. carinii = experiment: Drug inhibition assay: [3H]PABA incorporation into reduced folates by P. carinii organisms; assay type: cell-based, Pneumocystis carinii; conditions: for activity at 10000 µM: drug 1 × 10^-2 M, 0 = total inhibition
Description: The following assay, used previously to assess drug activity against P. carinii or T. gondii [Kovacs et al., J. Infectious Diseases 160:312-320 (1989)], was used to test drugs for their ability to adversely affect the metabolism of pneumocystis and toxoplasma.
An animal model of Pneumocystis carinii pneumonia was used to obtain organisms. This model involves treating rats, usually Sprague-Dawley rats, with a corticosteroid, in the present case dexamethasone (1-2 mg/L of drinking water) for 6-10 weeks. Tetracycline is included in the water (1 mg/mL) to prevent bacterial superinfection. Such immunosuppressed rats will develop P. carinii pneumonia spontaneously, and P. carinii organisms are obtained by removing the lungs in a sterile manner, cutting up the lungs and disrupting them with a Stomacher (Tekmar), which makes a suspension of organisms and cells. The P. carinii organisms are then partially purified by Ficoll-Hypaque density gradient centrifugation, washed in phosphate buffered saline (PBS), and used in the following experiment.
For drug inhibition studies, organisms are incubated with drugs at varying concentrations for 2-h in paraaminobenzoic acid-free (PABA-free) and folate-free RPMI before pulsing with [^3 H]PABA.
Organisms are harvested after an 18-24 h pulse and washed twice in phosphate buffered saline (PBS). Folates are extracted as previously described [Allegra et al., J. Biol. Chem. 261:6478-6485 (1986)]. The organism pellet is heated at 100° C. for 1 min in 2% sodium ascorbate, pH 6.0, and 2% 2-mercaptoethanol; after centrifugation, the supernatant is treated with partially purified porcine kidney conjugase for 30 min at 37° C. to convert all folates to monoglutamates. After an additional boiling with sodium ascorbate and 2-mercaptoethanol, the folates are extracted into methanol using a C-18 cartridge (Sep-Pak, Waters Chromatography Division, Milford, Mass.) and concentrated under a stream of nitrogen.
The individual folates are resolved by high-performance liquid chromatography (HPLC) using a C8 μBondapak column (Waters Chromatography) under isocratic conditions; the running buffer is 15% ethanol and 85% Pic A (Waters Chromatography), pH 5.5 Radioactivity is determined by an in-line scintillation counter (Flow 1 Beta, model CR, Radiomatic Instruments, Tampa, Fla.). Unlabeled folates are included in each run as internal controls.
Results are presented as the percentage of total radiolabel incorporated into reduced folates compared with untreated controls.

[3] = T. gondii, 1 × 10^-4 M, single runs, read-out: Percent DHPS Inhibition
[4] = T. gondii, 1 × 10^-5 M, single runs, read-out: Percent DHPS Inhibition
[5] = drug 1 × 10^-4 M, single test runs, 100 = no inhibition, 100 µM
[6] = drug 1 × 10^-5 M, single test runs, 100 = no inhibition, 10 µM
[7] = Pneumocystis carinii, single test runs, 100 = no inhibition, read-out: Results: % of Control (total radiolabel incorporated into reduced folates)
[8] = Pneumocystis carinii, drug 1 × 10^-4 M, single test runs, 100 = no inhibition, read-out: Results: % of Control (total radiolabel incorporated into reduced folates)
[9] = concentration of each value not resolvable: run has fewer values than the concentrations listed for the drug (1 × 10-2 to 1 × 10^-6 M; PAcBA also 3 × 10^-3 M), values of a run in order of falling concentration

CC(O)CN(C)C (stereo not drawn) [1-dimethylamino-2-propanol, reference compound]
inhibition at 1000 µM ([1]; 1 × 10^-3 M): 81.7%
inhibition at 100 µM ([1]; 1 × 10^-4 M): 91.6%
inhibition at 10 µM ([1]; 1 × 10^-5 M): 100%
inhibition at 100 µM [2, 3]: 93.6%
inhibition at 10 µM [2, 4]: 100%
Results: % of Control (total radiolabel incorporated into reduced folates) (P. carinii; [5]): 100 % of Control and 71.3 % of Control
Results: % of Control (total radiolabel incorporated into reduced folates) (P. carinii; [6]): 95 % of Control and 65.4 % of Control

OC[C@H]1O[C@@H](n2cnc3c(O)ncnc32)[C@H](O)[C@@H]1O [Inosine, inosine, reference compound]
inhibition at 1000 µM ([1]; 1 × 10^-3 M): 100%
inhibition at 100 µM ([1]; 1 × 10^-4 M): 100%
inhibition at 10 µM ([1]; 1 × 10^-5 M): 100%
activity at 10000 µM (P. carinii; [7]): 57.5%
activity at 1000 µM (P. carinii; Pneumocystis carinii, drug 1 × 10^-3 M, single test runs, 100 = no inhibition, read-out: Results: % of Control (total radiolabel incorporated into reduced folates)): 100%
activity at 100 µM (P. carinii; [8]): 69.8%
Results: % of Control (total radiolabel incorporated into reduced folates) (P. carinii; [9]): 61.9 % of Control and 57.6 % of Control and 100 % of Control

CC(=O)Nc1ccc(C(=O)O)cc1 [PAcBA as 1-dimethylamino-2-propanol salt, PAcBA salt of 1-dimethylamino-2-propanol]
activity at 10000 µM (P. carinii; [7]): 0%
activity at 100 µM (P. carinii; [8]): 19%
Results: % of Control (total radiolabel incorporated into reduced folates) (P. carinii; drug 1 × 10^-3 M, single test runs, 100 = no inhibition, 1000 µM): 0 % of Control
Results: % of Control (total radiolabel incorporated into reduced folates) (P. carinii; [5]): 15 % of Control and 20 % of Control
Results: % of Control (total radiolabel incorporated into reduced folates) (P. carinii; [6]): 82 % of Control and 44 % of Control and 43 % of Control
Results: % of Control (total radiolabel incorporated into reduced folates) (P. carinii; drug 1 × 10^-6 M, single test runs, 100 = no inhibition, 1 µM): 100 % of Control and 67 % of Control and 74 % of Control
Potency of the salt relative to the free acid PAcBA against P. carinii (P. carinii; salt versus free acid): approximately 10 fold

CC(=O)Nc1ccc(C(=O)O)cc1 [PAcBA, p-acetamidobenzoic acid]
Inhibition of DHPS in P. carinii (in words) [1]: inhibition
Percent DHPS Inhibition ([1]; 1 × 10^-3 M): 16.6% and 22.2%
inhibition at 1000 µM ([1]; 1 × 10^-3 M): 14.3%
Percent DHPS Inhibition ([1]; 1 × 10^-4 M): 37.9% and 52.6% and 62.1%
Percent DHPS Inhibition ([1]; 1 × 10^-5 M): 70.2% and 100% and 92.2%
Inhibition of DHPS activity in Toxoplasma gondii (in words) [2]: inhibited
inhibition at 1000 µM ([2]; T. gondii, 1 × 10^-3 M, single runs, read-out: Percent DHPS Inhibition): 5.1%
inhibition at 100 µM [2, 3]: 21.4%
inhibition at 10 µM [2, 4]: 68.4%
inhibition at 1 µM ([2]; T. gondii, 1 × 10^-6 M, single runs, read-out: Percent DHPS Inhibition): 83.4%
Inhibition of P. carinii (in words) (P. carinii; 1×10^-2 M, 3×10^-3 M, 1×10^-3 M): considerable inhibition
Inhibition of P. carinii (in words) (P. carinii; 1×10^-4 M): some inhibition

Isoprinosine [reference compound]
Percent DHPS Inhibition ([1]; 1 × 10^-3 M): 35.6%
Percent DHPS Inhibition ([1]; 1 × 10^-4 M): 87.4%
Percent DHPS Inhibition ([1]; 1 × 10^-5 M): 100%
Percent DHPS Inhibition ([2]; T. gondii, 1 × 10^-3 M, single runs): 7.8%
Percent DHPS Inhibition ([2]; T. gondii, 1 × 10^-4 M, single runs): 28.3%
Percent DHPS Inhibition ([2]; T. gondii, 1 × 10^-5 M, single runs): 76.5%
Percent DHPS Inhibition ([2]; T. gondii, 1 × 10^-6 M, single runs): 100%
Results: % of Control (total radiolabel incorporated into reduced folates) (P. carinii; [9]): 100 % of Control
Inhibition of P. carinii (in words) (P. carinii; no concentration stated): has inhibition
